According to ChEMBL document CHEMBL5370538, “Discovery of novel 6-p-tolyl-3-(3,4,5-trimethoxybenzyl)-7H-[1,2,4]triazolo[3,4-b][1,3,4]thiadiazine derivative as a potent tubulin inhibitor with promising in vivo antitumor activity” (Eur J Med Chem, 2023):
Activity calls are given as the source filed them. No cut-off for these calls is given here.

Key:
HT-29 = assay: Antiproliferative activity against human HT-29 cells assessed as cell growth inhibition incubated for 48 hrs by MTT assay; format: functional, cell-based; settings: HT-29, 48 h
Tubulin (Homo sapiens) [1] = biological target: T1, Tubulin (Homo sapiens) (UniProt P68371+Q9H4B7+P0DPH7+P68366+Q13509+Q71U36+P04350+Q3ZCM7+P07437+P68363+Q9BQE3+Q6PEY2+Q13885+Q9BVA1+Q9BUF5); assay: Inhibition of tubulin polymerization (unknown origin) at 10 uM measured for 20 mins in presence of GTP by spectrophotometry analysis; format: protein-complex assay
Tubulin (Homo sapiens) [2] = biological target: T1, Tubulin (Homo sapiens); assay: Inhibition of tubulin polymerization (unknown origin) at 10 uM measured for 20 mins in presence of GTP by spectrophotometry analysis relative to control; format: protein-complex assay
A549 = assay: Antiproliferative activity against human A549 cells assessed as cell growth inhibition incubated for 48 hrs by MTT assay; format: functional, cell-based; settings: A549, 48 h
HeLa = assay: Antiproliferative activity against human HeLa cells assessed as cell growth inhibition incubated for 48 hrs by MTT assay; format: functional, cell-based
MDA-MB-231 = assay: Antiproliferative activity against human MDA-MB-231 cells assessed as cell growth inhibition incubated for 48 hrs by MTT assay; format: functional, cell-based; settings: MDA-MB-231, 48 h
[3] = Antiproliferative activity against human HEK293 cells assessed as cell growth inhibition incubated for 48 hrs by MTT assay; format: toxicity, cell-based

| Structure (SMILES) | IC50 (HT-29) [µM] | also measured |
| --- | --- | --- |
| COc1ccc(C2=Nn3c(Cc4cc(OC)c(OC)c(OC)c4)nnc3SC2)cc1[N+](=O)[O-] | 49.2 |  |
| COc1cc(OCc2nnc3n2N=C(c2ccc(N)cc2)CS3)cc(OC)c1OC | > 50 |  |
| COc1ccc(C2=Nn3c(COc4cc(OC)c(OC)c(OC)c4)nnc3SC2)cc1OC(C)=O | 26.2 |  |
| COc1cc(Cc2nnc3n2N=C(c2ccc(N(C)C)cc2)CS3)cc(OC)c1OC | 35.2 |  |
| COc1cc(OCc2nnc3n2N=C(c2ccc(C(F)(F)F)cc2)CS3)cc(OC)c1OC | > 50 |  |
| COc1ccc(C2=Nn3c(Cc4cc(OC)c(OC)c(OC)c4)nnc3SC2)cc1O | 9.69 |  |
| CC(=O)O[C@H]1C(=O)[C@@]2(C)[C@H]([C@H](OC(=O)c3ccccc3)[C@]3(O)C[C@H](OC(=O)[C@H](O)[C@@H](NC(=O)c4ccccc4)c4ccccc4)C(C)=C1C3(C)C)[C@]1(OC(C)=O)CO[C@@H]1C[C@@H]2O |  | inhibition (Tubulin (Homo sapiens) [1]): inactive |
| COc1cc(Cc2nnc3n2N=C(c2ccccc2)CS3)cc(OC)c1OC | > 50 |  |
| COc1cc(OCc2nnc3n2N=C(c2ccc(N(C)C)cc2)CS3)cc(OC)c1OC | 0.41 | inhibition (Tubulin (Homo sapiens) [2]): 12%; IC50 (A549): > 50 µM; IC50 (HeLa): 2200 nM; IC50 (MDA-MB-231): 9.73 µM; IC50 at 48 h [3]: > 100 µM |
| COc1ccc(C2=Nn3c(Cc4cc(OC)c(OC)c(OC)c4)nnc3SC2)cc1 | 42.8 |  |
| COc1cc(OCc2nnc3n2N=C(c2ccc(Cl)c(Cl)c2)CS3)cc(OC)c1OC | 48.1 |  |
| COc1ccc(C2=Nn3c(COc4cc(OC)c(OC)c(OC)c4)nnc3SC2)cc1OC | > 50 |  |
| COc1cc(Cc2nnc3n2N=C(c2ccc(Cl)cc2)CS3)cc(OC)c1OC | 1.02 | inhibition (Tubulin (Homo sapiens) [2]): 30%; IC50 (A549): 5.77 µM; IC50 (HeLa): 1330 nM; IC50 (MDA-MB-231): 4.63 µM; IC50 at 48 h [3]: > 100 µM |
| COc1cc(OCc2nnc3n2N=C(c2ccc(SC)cc2)CS3)cc(OC)c1OC | > 50 |  |
| COc1cccc(C2=Nn3c(Cc4cc(OC)c(OC)c(OC)c4)nnc3SC2)c1 | 32 |  |
| COc1cc(OCc2nnc3n2N=C(c2ccc(C)cc2)CS3)cc(OC)c1OC | 0.46 | inhibition (Tubulin (Homo sapiens) [2]): 11%; IC50 (A549): 30.6 µM; IC50 (HeLa): > 50000 nM; IC50 (MDA-MB-231): 12.8 µM; IC50 at 48 h [3]: > 100 µM |
| COc1ccc(Cc2nnc(SCC(=O)c3ccc(C)cc3)n2N)c(OC)c1OC | 0.62 | IC50 (A549): 11.8 µM; IC50 (HeLa): 9020 nM; IC50 (MDA-MB-231): > 50 µM; IC50 at 48 h [3]: > 100 µM |
| COc1ccc(C2=Nn3c(COc4cc(OC)c(OC)c(OC)c4)nnc3SC2)cc1[N+](=O)[O-] | > 50 |  |
| COc1cc(Cc2nnc3n2N=C(c2ccc(C(F)(F)F)cc2)CS3)cc(OC)c1OC | 5.03 |  |
| COc1cc(Cc2nnc3n2N=C(c2ccccc2F)CS3)cc(OC)c1OC | 44.6 |  |
| COc1cc(Cc2nnc3n2N=C(c2cccs2)CS3)cc(OC)c1OC | > 50 |  |
| COc1ccc(C2=Nn3c(COc4cc(OC)c(OC)c(OC)c4)nnc3SC2)cc1O | 36.4 |  |
| COc1ccc(C2=Nn3c(COc4cc(OC)c(OC)c(OC)c4)nnc3SC2)cc1F | > 50 |  |
| COc1ccc(C2=Nn3c(COc4cc(OC)c(OC)c(OC)c4)nnc3SC2)cc1N | 4.93 |  |
| COc1cc(Cc2nnc3n2N=C(c2ccc([N+](=O)[O-])cc2)CS3)cc(OC)c1OC | > 50 |  |
| COc1cc(Cc2nnc3n2N=C(c2ccc(Br)cc2)CS3)cc(OC)c1OC | 43.6 |  |
| COc1ccc(C2=Nn3c(Cc4cc(OC)c(OC)c(OC)c4)nnc3SC2)cc1N | > 50 |  |
| COc1cc(Cc2nnc3n2N=C(c2ccc(F)cc2)CS3)cc(OC)c1OC | > 50 |  |
| COc1cc(Cc2nnc3n2N=C(c2ccc(-c4ccccc4)cc2)CS3)cc(OC)c1OC | > 50 |  |
| COc1ccc(/C=C\c2cc(OC)c(OC)c(OC)c2)cc1O [COMBRETASTATIN A4] | 1.18 | IC50 (HeLa): 43 nM; IC50 (MDA-MB-231): 0.077 µM |
